Laboratory results published in patent US8338472B2, “Hexahydrocyclopentyl[F]indazole carboxamides and derivatives thereof as selective glucocorticoid receptor modulators” (Merck Sharp & Dohme Corp., priority 2008, dated 2012).
Read-outs that look alike come from different tables or passages of the source.

What was measured:
[1] = target: T1, glucocorticoid receptor (GR) (Homo sapiens, UniProt P04150); assay: Ligand binding assay (GR BIND), 3H-dexamethasone displacement in MDA-MB-453 cell lysate; conditions: GR BIND Ki, Table 1
T1 sequence (P04150 1-777): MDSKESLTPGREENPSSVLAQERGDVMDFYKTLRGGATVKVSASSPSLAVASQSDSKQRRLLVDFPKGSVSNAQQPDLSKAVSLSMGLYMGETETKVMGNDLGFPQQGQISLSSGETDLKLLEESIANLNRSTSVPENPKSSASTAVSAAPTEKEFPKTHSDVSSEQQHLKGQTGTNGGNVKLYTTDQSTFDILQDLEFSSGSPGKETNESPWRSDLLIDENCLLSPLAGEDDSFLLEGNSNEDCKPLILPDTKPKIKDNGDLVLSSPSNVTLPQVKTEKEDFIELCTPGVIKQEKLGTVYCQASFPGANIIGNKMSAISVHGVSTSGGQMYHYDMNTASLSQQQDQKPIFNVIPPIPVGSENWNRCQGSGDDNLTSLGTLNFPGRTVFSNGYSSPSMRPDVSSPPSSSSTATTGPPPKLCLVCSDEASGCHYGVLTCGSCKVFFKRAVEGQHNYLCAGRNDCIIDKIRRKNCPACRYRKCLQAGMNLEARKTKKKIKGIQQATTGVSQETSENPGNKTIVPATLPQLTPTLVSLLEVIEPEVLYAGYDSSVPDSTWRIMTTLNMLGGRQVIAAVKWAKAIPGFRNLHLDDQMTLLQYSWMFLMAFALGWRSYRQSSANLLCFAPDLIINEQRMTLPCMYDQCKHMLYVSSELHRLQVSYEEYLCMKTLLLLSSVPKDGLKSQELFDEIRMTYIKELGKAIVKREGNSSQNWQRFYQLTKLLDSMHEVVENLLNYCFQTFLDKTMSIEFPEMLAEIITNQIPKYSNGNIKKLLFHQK

[2] = target: T2, Glucocorticoid Receptor (Homo sapiens, UniProt P04150); assay: Trans-Activation Modulation of Glucocorticoid Receptor (GRAMMER), MMTV-LUC reporter gene in A549 cells; type: cell-based; conditions: Table 1; for Emax: A549, A549 cells, Emax relative to 300 nM dexamethasone, read-out: Transactivation A549 Cells GRAMMER Emax; for EC50: inflection point, A549 cells, read-out: Transactivation A549 Cells GRAMMER IP
T2 construct: These cells express large amount of the GR and are very responsive to GC treatment; endogenous in cells; host or cells: A549 cells transiently transfected with the MMTV-LUC reporter
T2 sequence (P04150 1-777): T1 sequence (P04150 1-777)
Procedure, shortened: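 Luciferase from a transiently transfected MMTV-LUC reporter was measured after 24 h compound exposure (≤1% DMSO) in A549 or MDA-MB-453 cells. For antagonism, the decrease of 10 nM dexamethasone-induced signal was calculated. For agonism, Emax was referenced to 300 nM dexamethasone.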

[3] = target: T3, human GR (Homo sapiens, UniProt P04150); assay: Transrepression Assay (GITAR), TNFα-β-lactamase reporter gene in U937 cells; type: cell-based; conditions: for GITAR Greater than by GRAMMER % SEP: GITAR Emax minus GRAMMER Emax; for EC50: inflection point, U937 cells, read-out: Transrepression U937 Cells GITAR IP
T3 construct: U937 cells contain an endogenous glucocorticoid receptor (GR); endogenous in cells; host or cells: U937 cells stably transfected with the TNF-alpha promoter/beta-lactamase reporter
T3 sequence (P04150 1-777): T1 sequence (P04150 1-777)
Procedure, shortened: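 Repression of PMA (5 ng/ml final)/LPS (100 ng/ml final)-induced TNF-α promoter activity, read as β-lactamase cleavage of CCF2-AM, in stably transfected U937 cells expressing native GR. Compound added 30-45 min before stimulation, overnight (~18 hr) 37° C; normalized to 100 nM dexamethasone (100%).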

[4] = U-937, U937 cells, activity repressed by 100 nM dexamethasone = 100%, Table 1, read-out: Transrepression U937 Cells GITAR Emax
[5] = U-937, text statement, 100 nM dexamethasone = 100%, read-out: maximal activity in the transrepression assay (GITAR)

Ki [1] | Emax [2] | EC50 [2] | GITAR Greater than by GRAMMER % SEP ([3]; Table 1) | Emax [3, 4] | Emax [3, 5] | EC50 ([3]; Table 1) | Compound
23.2 nM | 3.2% | 398 nM | 35.3% | 38.5% | > 5% | 1810 nM | CN(C(=O)[C@H]1CCC2=Cc3c(cnn3-c3ccc(F)cc3)C[C@@]21C)C1CCCCC1 [Compound 44, (4αR,5S)-N-cyclohexyl-1-(4-fluorophenyl)-N,4α-dimethyl-1,4,4α,5,6,7-hexahydrocyclopenta[f]indazole-5-carboxamide]
9 nM | 3.4% | 1460 nM | 16.9% | 20.3% | > 5% | 226 nM | COc1ccccc1CN(C)C(=O)[C@H]1CCC2=Cc3c(cnn3-c3ccc(F)cc3)C[C@@]21C [Compound 50, (4αR,5S)-1-{4-fluorophenyl)-N-(2-methoxybenzyl)-N,4α-dimethyl-hexahydrocyclopenta[f]indazole-5-carboxamide]
37.4 nM | 18.3% | 2290 nM | 40.2% | 58.4% | > 5% | 2250 nM | CC1CC(C)CN(C(=O)[C@H]2CCC3=Cc4c(cnn4-c4ccc(F)cc4)C[C@@]32C)C1 (stereo partly drawn) [Compound 53, (4αR,5S)-5-[(3,5-dimethylpiperidin-1-yl)carbonyl]-1-(4-fluorophenyl)-4α-methyl-1,4,4α,5,6,7-hexahydrocyclopenta[f]indazole]
32.1 nM | 3.1% | 1250 nM | 37.4% | 40.5% | > 5% | 2210 nM | CC(C)CN(C)C(=O)[C@H]1CCC2=Cc3c(cnn3-c3ccc(F)cc3)C[C@@]21C [Compound 54, (4αR,5S)-1-(4-fluorophenyl)-N-isobutyl-N,4α-dimethyl-1,4,4α,5,6,7-hexahydrocyclopenta[f]indazole-5-carboxamide]
53.5 nM | 1.6% | 5000 nM | 22.3% | 23.9% | > 5% | 3950 nM | CCN(CC)C(=O)[C@H]1CCC2=Cc3c(cnn3-c3ccc(F)cc3)C[C@@]21C [Compound 55, (4αR,5S)-N,N-diethyl-1-(4-fluorophenyl)-4α-methyl-1,4,4α,5,6,7-hexahydrocyclopenta[f]indazole-5-carboxamide]
2.5 nM | 44.1% | 430 nM | 24.0% | 68.1% | > 5% | 595 nM | CCCCN(CCC)C(=O)[C@H]1CCC2=Cc3c(cnn3-c3ccc(F)cc3)C[C@@]21C [Compound 56, (4αR,5S)-N-butyl-1-{4-fluorophenyl)-4α-methyl-N-propyl-1,4,4α,5,6,7-hexahydrocyclopenta[f]indazole-5-carboxamide]

The next lines start with the compound.

Compound | Ki [1] | Emax [2] | EC50 [2] | GITAR Greater than by GRAMMER % SEP ([3]; Table 1) | Emax [3, 4] | Emax [3, 5] | EC50 ([3]; Table 1)
COCCN(Cc1ccc(OC)cc1)C(=O)[C@H]1CCC2=Cc3c(cnn3-c3ccc(F)cc3)C[C@@]21C [Compound 45, (4αR,5S)-1-(4-fluorophenyl)-N-(4-methoxybenzyl)-N-(2-methoxyethyl)-4α-methyl-1,4,4α,5,6,7-hexahydrocyclopenta[f]indazole-5-carboxamide] | 8.7 nM | 2.2% | 2140 nM | 17.1% | 19.3% | > 5% | 158 nM
CN(Cc1cccc(C(F)(F)F)c1)C(=O)[C@H]1CCC2=Cc3c(cnn3-c3ccc(F)cc3)C[C@@]21C [Compound 46, (4αR,5S)-1-(4-fluorophenyl)-N,4α-dimethyl-N-[3-(trifluoromethyl)benzyl]-1,4,4α,5 ,6,7-hexahydrocyclopenta[f]indazole-5-carboxamide] | 17.6 nM | 2.6% | 2410 nM | 12.7% | 15.3% | > 5% | 87.4 nM
COc1cccc(CN(C)C(=O)[C@H]2CCC3=Cc4c(cnn4-c4ccc(F)cc4)C[C@@]32C)c1 [Compound 47, (4αR,5S)-1-(4-fluorophenyl)-N-(3-methoxybenzyl)-N,4α-dimethyl-1,4,4α,5,6,7-hexahydrocyclopenta[f]indazole-5-carboxamide] | 7.1 nM | 7.4% | 2020 nM | 20.4% | 27.8% | > 5% | 1690 nM
CN(CCOc1ccccc1)C(=O)[C@H]1CCC2=Cc3c(cnn3-c3ccc(F)cc3)C[C@@]21C [Compound 48, (4αR,5S)-1-(4-fluorophenyl)-N,4α-dimethyl-N-(2-phenoxyethyl)-1,4,4α,5,6,7-hexahydrocyclopenta[f] indazole-5-carboxamide] | 7 nM | 2.7% | 1390 nM | 20.0% | 22.8% | > 5% | 410 nM
C[C@]12Cc3cnn(-c4ccc(F)cc4)c3C=C1CC[C@@H]2C(=O)N(CCc1ccccc1)Cc1ccccc1 [Compound 49, (4αR,5S)-N-benzyl-1-(4-fluorophenyl)-4α-methyl-N-(2-phenylethyl)-1,4,4,5,6,7-hexahydrocyclopenta[f]indazole-5-carboxamide] | 1.9 nM | 1.5% | 260 nM | 10.1% | 11.6% | > 5% | 145 nM
C[C@]12Cc3cnn(-c4ccc(F)cc4)c3C=C1CC[C@@H]2C(=O)N1CCC(S(=O)(=O)c2ccccc2)CC1 [Compound 51, (4αR,5S)-1-(4-fluorophenyl)-4α-methyl-5-{[4-(phenylsulfonyl)piperidin-1-yl]carbonyl}1,4,4α,5,6,7-hexahydrocyclopenta[f]indazole] | 39.5 nM | 2.9% | 1190 nM | 32.2% | 35.1% | > 5% | 1380 nM
CCN(Cc1ccccc1)C(=O)[C@H]1CCC2=Cc3c(cnn3-c3ccc(F)cc3)C[C@@]21C [Compound 52, (4αR,5S}-N-benzyl-N-ethyl-1-(4-fluorophenyl)-4α-methyl-1,4,4α,5,6,7-hexahydrocyclopenta[f]indazole-5-carboxamide] | 2.6 nM | 11.6% | 1710 nM | 21.7% | 33.2% | > 5% | 971 nM
CC(C)CN(CC(O)C(F)(F)F)C(=O)[C@H]1CCC2=Cc3c(cnn3-c3ccc(F)cc3)C[C@@]21C (stereo partly drawn) [Compound 58, (4αR,5S)-1-(4-fluorophenyl)-N-isobutyl-4α-methyl-N-(3,3,3-trifluoro-2-hydroxypropyl)-1,4,4α,5,6,7-hexahydrocyclopenta[f]indazole-5-carboxamide] | 7.3 nM | 71.5% | 227 nM | 15.3% | 86.8% | > 5% | 122 nM
C[C@]12Cc3cnn(-c4ccc(F)cc4)c3C=C1CC[C@@H]2C(=O)N(Cc1ccccc1F)CC(O)C(F)(F)F (stereo partly drawn) [Compound 59, (4αR,5S)-N-(2-fluorobenzyl)-1-(4-fluorophenyl)-4α-methyl-N-(3,3,3-trifluoro-2-hydroxypropyl)-1,4,4α,5,6,7-hexahydrocyclopenta[f]indazole-5-carboxamide] | 3.9 nM | 75.2% | 117 nM | 1.5% | 76.7% | > 5% | 91.5 nM
